Test results as given in patent publication US20150105386A1, “4-(4-PYRIDINYL)-BENZAMIDES AND THEIR USE AS ROCK ACTIVITY MODULATORS” (AbbVie Deutschland GmbH & Co KG, priority 2007, published 2015).

Target: T1, hROCK-2 (Homo sapiens, UniProt O75116)
T1 construct: purchased Upstate
Assay: ROCK-2 Assay (33P-ATP FlashPlate kinase assay, biotinylated S6 peptide)
Type: biochemical
Settings: hROCK-2 0.8 nM, 5 μM ATP, 1.5 μM biotinylated S6 peptide, room temperature, 60 min
Method: The reaction is stopped by addition of 150 μl of 0.1 M EDTA in Dulbecco's PBS. 170 μl from each well are loaded onto a FlashPlate (PerkinElmer) and incubated at room temperature for 30 min.

T1 sequence (O75116 whole entry): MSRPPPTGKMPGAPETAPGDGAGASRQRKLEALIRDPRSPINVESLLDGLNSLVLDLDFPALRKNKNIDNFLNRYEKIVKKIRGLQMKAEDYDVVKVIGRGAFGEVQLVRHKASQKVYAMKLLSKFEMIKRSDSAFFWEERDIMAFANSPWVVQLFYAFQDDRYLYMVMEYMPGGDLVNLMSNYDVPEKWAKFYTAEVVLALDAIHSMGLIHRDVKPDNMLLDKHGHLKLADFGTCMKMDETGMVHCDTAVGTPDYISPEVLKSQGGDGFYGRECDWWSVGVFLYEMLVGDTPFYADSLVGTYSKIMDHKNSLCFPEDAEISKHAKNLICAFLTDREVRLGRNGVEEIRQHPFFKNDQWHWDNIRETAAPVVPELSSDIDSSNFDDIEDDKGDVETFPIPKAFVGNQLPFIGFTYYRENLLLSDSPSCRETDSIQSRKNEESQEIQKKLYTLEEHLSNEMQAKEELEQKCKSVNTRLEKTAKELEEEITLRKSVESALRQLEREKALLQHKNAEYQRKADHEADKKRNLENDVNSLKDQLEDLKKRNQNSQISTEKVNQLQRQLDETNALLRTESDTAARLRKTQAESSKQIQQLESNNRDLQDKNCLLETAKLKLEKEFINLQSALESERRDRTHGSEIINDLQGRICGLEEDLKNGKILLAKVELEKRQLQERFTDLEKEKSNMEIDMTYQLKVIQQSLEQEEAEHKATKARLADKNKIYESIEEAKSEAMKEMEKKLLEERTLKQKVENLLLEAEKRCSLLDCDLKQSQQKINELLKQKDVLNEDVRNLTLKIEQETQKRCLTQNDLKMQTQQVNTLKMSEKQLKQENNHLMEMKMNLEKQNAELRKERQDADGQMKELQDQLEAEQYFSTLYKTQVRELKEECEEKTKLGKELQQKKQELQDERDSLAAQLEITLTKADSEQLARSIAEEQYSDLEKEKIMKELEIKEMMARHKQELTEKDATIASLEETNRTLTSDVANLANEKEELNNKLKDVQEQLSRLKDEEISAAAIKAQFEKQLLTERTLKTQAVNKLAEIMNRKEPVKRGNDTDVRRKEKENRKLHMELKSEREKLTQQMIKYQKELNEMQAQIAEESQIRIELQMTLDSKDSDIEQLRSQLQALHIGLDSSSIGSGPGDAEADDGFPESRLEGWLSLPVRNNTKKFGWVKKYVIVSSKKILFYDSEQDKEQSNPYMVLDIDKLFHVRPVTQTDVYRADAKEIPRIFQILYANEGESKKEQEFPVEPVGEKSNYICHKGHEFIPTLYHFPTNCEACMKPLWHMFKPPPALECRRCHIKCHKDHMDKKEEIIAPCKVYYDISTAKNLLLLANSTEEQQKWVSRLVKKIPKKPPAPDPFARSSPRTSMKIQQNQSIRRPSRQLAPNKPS

Q: How did the Ki turn out when O=C(N[C@H](CCO)c1ccccc1)c1ccc(-c2ccncc2)cc1 [Example 2, N-[(1R)-3-hydroxy-1-phenylpropyl]-4-pyridin-4-ylbenzamide] was run?
A: Its Ki is less than 50 nM.

Q: Which Ki does the source give for CC(C)(C)OC(=O)NCC(NC(=O)c1ccc(-c2ccncc2)cc1)c1ccccc1 (stereo not shown) [Example 3, tert-Butyl-{2-phenyl-2-[(4-pyridin-4-ylbenzoyl)amino]ethyl}carbamate] here?
A: The Ki was 50 to 500 nM.

Q: Which Ki does the source give for O=C(N[C@H](CO)Cc1ccccc1)c1ccc(-c2ccncc2)cc1 [Example 7, N-[(1S)-1-benzyl-2-hydroxyethyl]-4-pyridin-4-ylbenzamide] here?
A: The Ki was less than 50 nM.

Q: How did the Ki turn out when O=C(N[C@H](CO)Cc1c[nH]c2ccccc12)c1ccc(-c2ccncc2)cc1 [Example 14, N-[(1S)-2-hydroxy-1-(1H-indol-3-ylmethyl)ethyl]-4-pyridin-4-ylbenzamide] was run?
A: Its Ki is 50 to 500 nM.

Q: Which Ki does the source give for O=C(N[C@H](CO)Cc1ccc(O)cc1)c1ccc(-c2ccncc2)cc1 [Example 15, N-[(1S)-2-hydroxy-1-(4-hydroxybenzyl)ethyl]-4-pyridin-4-ylbenzamide] here?
A: Its Ki is 50 to 500 nM.

Q: For COCC(Cc1ccccc1)NC(=O)c1ccc(-c2ccncc2)cc1 (stereo not shown) [Example 16, N-(1-benzyl-2-methoxyethyl)-4-pyridin-4-ylbenzamide], which Ki is on record?
A: The Ki was 50 to 500 nM.

Q: Which Ki does the source give for O=C(N[C@@H](Cc1ccccc1)CN1CCCC1)c1ccc(-c2ccncc2)cc1 [Example 28, N-[(1S)-1-benzyl-2-pyrrolidin-1-ylethyl]-4-pyridin-4-ylbenzamide] here?
A: The Ki was less than 50 nM.

Q: O=C(N[C@@H](c1ccccc1)[C@H](O)c1ccccc1)c1ccc(-c2ccncc2)cc1 [Example 29, N-[(1S,2R)-2-hydroxy-1,2-diphenylethyl]-4-pyridin-4-ylbenzamide] was tested. Which Ki did it give?
A: Its Ki is 50 to 500 nM.

Q: For CN(C)CC(NC(=O)c1ccc(-c2ccncc2)cc1)c1ccccc1 (stereo not shown) [Example 30, N-[2-(dimethylamino)-1-phenylethyl]-4-pyridin-4-ylbenzamide], which Ki is on record?
A: The Ki was less than 50 nM.

Q: Which Ki does the source give for O=C(NC(CN1CCCC1)c1ccccc1)c1ccc(-c2ccncc2)cc1 (stereo not shown) [Example 31, N-(1-phenyl-2-pyrrolidin-1-ylethyl)-4-pyridin-4-ylbenzamide] here?
A: The Ki was less than 50 nM.

Q: Which Ki does the source give for O=C(NC(CN1CCOCC1)c1ccccc1)c1ccc(-c2ccncc2)cc1 (stereo not shown) [Example 32, N-(2-morpholin-4-yl-1-phenylethyl)-4-pyridin-4-ylbenzamide] here?
A: Its Ki is less than 50 nM.

Q: Which Ki does the source give for CN1CCN(CC(NC(=O)c2ccc(-c3ccncc3)cc2)c2ccccc2)CC1 (stereo not shown) [Example 33, N-[2-(4-methylpiperazin-1-yl)-1-phenylethyl]-4-pyridin-4-ylbenzamide] here?
A: The Ki was 50 to 500 nM.

Q: For O=C(NC(c1ccccc1)[C@@H](O)c1ccccc1)c1ccc(-c2ccncc2)cc1 (stereo partly drawn) [Example 34, N-[(2S)-2-hydroxy-1,2-diphenylethyl]-4-pyridin-4-ylbenzamide], which Ki is on record?
A: The Ki was 50 to 500 nM.

Q: O=C(NC(Cn1ccnc1)c1ccccc1)c1ccc(-c2ccncc2)cc1 (stereo not shown) [Example 35, N-[2-(1H-imidazol-1-yl)-1-phenylethyl]-4-pyridin-4-ylbenzamide] was tested. Which Ki did it give?
A: Its Ki is less than 50 nM.

Q: With O=C(NC(CN1CCCCC1)c1ccccc1)c1ccc(-c2ccncc2)cc1 (stereo not shown) [Example 36, N-(1-phenyl-2-piperidin-1-ylethyl)-4-pyridin-4-ylbenzamide] as the compound, how does the Ki read?
A: The Ki was less than 50 nM.

Q: With O=C(NC(CO)c1cccnc1)c1ccc(-c2ccncc2)cc1 (stereo not shown) [Example 39, N-(2-hydroxy-1-pyridin-3-ylethyl)-4-pyridin-4-ylbenzamide] as the compound, how does the Ki read?
A: The Ki was 50 to 500 nM.

Q: For Cc1ccc(C(CO)NC(=O)c2ccc(-c3ccncc3)cc2)c(C)c1 (stereo not shown) [Example 40, N-[1-(2,4-dimethylphenyl)-2-hydroxyethyl]-4-pyridin-4-ylbenzamide], which Ki is on record?
A: Its Ki is 50 to 500 nM.

Q: Cc1ccc(C(CO)NC(=O)c2ccc(-c3ccncc3)cc2)cc1C (stereo not shown) [Example 41, N-[1-(3,4-dimethylphenyl)-2-hydroxyethyl]-4-pyridin-4-ylbenzamide] was tested. Which Ki did it give?
A: Its Ki is less than 50 nM.

Q: How did the Ki turn out when COc1ccc(C(CN)NC(=O)c2ccc(-c3ccncc3)cc2)cc1 (stereo not shown) [Example 44, N-[2-amino-1-(4-methoxyphenyl)ethyl]-4-pyridin-4-ylbenzamide] was run?
A: The Ki was 50 to 500 nM.
